Reference: patent publication US20240293360A1 (priority 2021, published 2024)

Test system: cancer cell lines HCT-116, SCC VII, and A549
Assay type: cell-based

O=C(CBr)N1CC([N+](=O)[O-])([N+](=O)[O-])C1 [Sample 2, 2-bromo-1-(3,3-dinitroazetidin-1-yl)ethanone]
suppressing viability of cancer cell lines, compared to impact sensitive form of ABDNAZ (samples 1 and 3): more effective
